Species: Rattus norvegicus
Experiment: DrugMatrix - Regimen: Daily Repeat
Format: toxicity, organism-based, Sprague-Dawley
Design: regimen Daily Repeat, gender Male, age 6-8 weeks
Conditions: in vivo, po, route oral GAVAGE, vehicle .5 % CMC; for ABSOLUTE BASOPHIL / ABSOLUTE EOSINOPHIL / ABSOLUTE LYMPHOCYTE / ABSOLUTE MONOCYTE / ABSOLUTE SEGMENTED NEUTROPHIL / BASOPHIL / EOSINOPHIL / ERYTHROCYTE COUNT / HEMATOCRIT / HEMOGLOBIN / LEUKOCYTE COUNT / LYMPHOCYTE / MEAN CORPUSCULAR HEMOGLOBIN / MEAN CORPUSCULAR HEMOGLOBIN CONCENTRATION / MEAN CORPUSCULAR VOLUME / MONOCYTE / NEUTROPHIL / NUCLEATED RED BLOOD CELLS / PLATELET COUNT: tissue Blood; for ALANINE AMINOTRANSFERASE / ALBUMIN / ALKALINE PHOSPHATASE / ASPARTATE AMINOTRANSFERASE / BLOOD UREA NITROGEN / CARBON DIOXIDE / CHLORIDE / CHOLESTEROL / CREATINE PHOSPHOKINASE / CREATININE / GLUCOSE / LACTATE DEHYDROGENASE / LIPASE / PHOSPHORUS / POTASSIUM / SODIUM / TOTAL BILIRUBIN / TOTAL PROTEIN / URIC ACID: tissue Plasma
[1] = 10 mg/kg, 72 h, dose level Low, time 3 day
[2] = 10 mg/kg, 120 h, dose level Low, time 5 day
[3] = 200 mg/kg, 72 h, dose level High, time 3 day
[4] = 200 mg/kg, 120 h, dose level High, time 5 day

## Nc1nc(N)c2nc(-c3ccccc3)c(N)nc2n1
[1]
  ABSOLUTE BASOPHIL: 0 CELLS/uL
  ABSOLUTE EOSINOPHIL: 222 CELLS/uL
  ABSOLUTE LYMPHOCYTE: 17071.33 CELLS/uL
  ABSOLUTE MONOCYTE: 553.33 CELLS/uL
  ABSOLUTE SEGMENTED NEUTROPHIL: 1620 CELLS/uL
  BASOPHIL: 0%
  EOSINOPHIL: 1%
  ERYTHROCYTE COUNT: 5.9 x10E6/uL
  HEMATOCRIT: 37.03%
  HEMOGLOBIN: 13.67 G/DL
  LEUKOCYTE COUNT: 19.47 x10E3/uL
  LYMPHOCYTE: 87.33%
  MEAN CORPUSCULAR HEMOGLOBIN: 23.17 pg
  MEAN CORPUSCULAR HEMOGLOBIN CONCENTRATION: 36.93 G/DL
  MEAN CORPUSCULAR VOLUME: 62.7 fL
  MONOCYTE: 3%
  NEUTROPHIL: 8.67%
  NUCLEATED RED BLOOD CELLS: 0 /100WBC
  PLATELET COUNT: 1434.33 x10E3/uL
  ALANINE AMINOTRANSFERASE: 48.33 u/L
  ALBUMIN: 4.3 G/DL
  ALKALINE PHOSPHATASE: 469.67 u/L
  ASPARTATE AMINOTRANSFERASE: 88 u/L
  BLOOD UREA NITROGEN: 15.33 mg/dL
  CARBON DIOXIDE: 24 mmol/L
  CHLORIDE: 104.67 MEQ/L
  CHOLESTEROL: 67.33 mg/dL
  CREATINE PHOSPHOKINASE: 281 u/L
  CREATININE: 0.21 mg/dL
  GLUCOSE: 161.33 mg/dL
  LACTATE DEHYDROGENASE: 437.67 u/L
  LIPASE: 8.67 u/L
  PHOSPHORUS: 13.37 mg/dL
  POTASSIUM: 6.69 MEQ/L
  SODIUM: 147.13 MEQ/L
  TOTAL BILIRUBIN: 0.23 mg/dL
  TOTAL PROTEIN: 6.03 G/DL
  URIC ACID: 2.37 mg/dL
[2]
  ABSOLUTE BASOPHIL: 0 CELLS/uL
  ABSOLUTE EOSINOPHIL: 142.67 CELLS/uL
  ABSOLUTE LYMPHOCYTE: 11218.33 CELLS/uL
  ABSOLUTE MONOCYTE: 128 CELLS/uL
  ABSOLUTE SEGMENTED NEUTROPHIL: 1311 CELLS/uL
  BASOPHIL: 0%
  EOSINOPHIL: 1.33%
  ERYTHROCYTE COUNT: 5.9 x10E6/uL
  HEMATOCRIT: 36.6%
  HEMOGLOBIN: 13.67 G/DL
  LEUKOCYTE COUNT: 12.8 x10E3/uL
  LYMPHOCYTE: 87.67%
  MEAN CORPUSCULAR HEMOGLOBIN: 23.17 pg
  MEAN CORPUSCULAR HEMOGLOBIN CONCENTRATION: 37.33 G/DL
  MEAN CORPUSCULAR VOLUME: 62 fL
  MONOCYTE: 1%
  NEUTROPHIL: 10%
  NUCLEATED RED BLOOD CELLS: 0.33 /100WBC
  PLATELET COUNT: 1227.67 x10E3/uL
  ALANINE AMINOTRANSFERASE: 45.33 u/L
  ALBUMIN: 4.2 G/DL
  ALKALINE PHOSPHATASE: 320.33 u/L
  ASPARTATE AMINOTRANSFERASE: 83 u/L
  BLOOD UREA NITROGEN: 18.67 mg/dL
  CARBON DIOXIDE: 26 mmol/L
  CHLORIDE: 106.67 MEQ/L
  CHOLESTEROL: 68.33 mg/dL
  CREATINE PHOSPHOKINASE: 371.67 u/L
  CREATININE: 0.19 mg/dL
  GLUCOSE: 145 mg/dL
  LACTATE DEHYDROGENASE: 432 u/L
  LIPASE: 9 u/L
  PHOSPHORUS: 11.77 mg/dL
  POTASSIUM: 5.68 MEQ/L
  SODIUM: 147.3 MEQ/L
  TOTAL BILIRUBIN: 0.17 mg/dL
  TOTAL PROTEIN: 5.93 G/DL
  URIC ACID: 1.3 mg/dL
[3]
  ABSOLUTE BASOPHIL: 0 CELLS/uL
  ABSOLUTE EOSINOPHIL: 51 CELLS/uL
  ABSOLUTE LYMPHOCYTE: 12546 CELLS/uL
  ABSOLUTE MONOCYTE: 436.67 CELLS/uL
  ABSOLUTE SEGMENTED NEUTROPHIL: 1333 CELLS/uL
  BASOPHIL: 0%
  EOSINOPHIL: 0.33%
  ERYTHROCYTE COUNT: 5.38 x10E6/uL
  HEMATOCRIT: 33.6%
  HEMOGLOBIN: 13.03 G/DL
  LEUKOCYTE COUNT: 14.37 x10E3/uL
  LYMPHOCYTE: 87.33%
  MEAN CORPUSCULAR HEMOGLOBIN: 24.23 pg
  MEAN CORPUSCULAR HEMOGLOBIN CONCENTRATION: 38.83 G/DL
  MEAN CORPUSCULAR VOLUME: 62.47 fL
  MONOCYTE: 3%
  NEUTROPHIL: 9.33%
  NUCLEATED RED BLOOD CELLS: 0.33 /100WBC
  PLATELET COUNT: 1312 x10E3/uL
  ALANINE AMINOTRANSFERASE: 57.33 u/L
  ALBUMIN: 4.17 G/DL
  ALKALINE PHOSPHATASE: 279 u/L
  ASPARTATE AMINOTRANSFERASE: 70.67 u/L
  BLOOD UREA NITROGEN: 22.33 mg/dL
  CARBON DIOXIDE: 27.67 mmol/L
  CHLORIDE: 104.67 MEQ/L
  CHOLESTEROL: 86.67 mg/dL
  CREATINE PHOSPHOKINASE: 220 u/L
  CREATININE: 0.24 mg/dL
  GLUCOSE: 154 mg/dL
  LACTATE DEHYDROGENASE: 170.33 u/L
  LIPASE: 9.33 u/L
  PHOSPHORUS: 12.93 mg/dL
  POTASSIUM: 6.66 MEQ/L
  SODIUM: 145.07 MEQ/L
  TOTAL BILIRUBIN: 0.17 mg/dL
  TOTAL PROTEIN: 5.8 G/DL
  URIC ACID: 1.5 mg/dL
[4]
  ABSOLUTE BASOPHIL: 0 CELLS/uL
  ABSOLUTE EOSINOPHIL: 238.67 CELLS/uL
  ABSOLUTE LYMPHOCYTE: 14472.33 CELLS/uL
  ABSOLUTE MONOCYTE: 270.33 CELLS/uL
  ABSOLUTE SEGMENTED NEUTROPHIL: 2185.33 CELLS/uL
  BASOPHIL: 0%
  EOSINOPHIL: 1.33%
  ERYTHROCYTE COUNT: 5.62 x10E6/uL
  HEMATOCRIT: 33.9%
  HEMOGLOBIN: 13.03 G/DL
  LEUKOCYTE COUNT: 17.17 x10E3/uL
  LYMPHOCYTE: 84.33%
  MEAN CORPUSCULAR HEMOGLOBIN: 23.2 pg
  MEAN CORPUSCULAR HEMOGLOBIN CONCENTRATION: 38.43 G/DL
  MEAN CORPUSCULAR VOLUME: 60.33 fL
  MONOCYTE: 1.67%
  NEUTROPHIL: 12.67%
  NUCLEATED RED BLOOD CELLS: 0.67 /100WBC
  PLATELET COUNT: 1441.67 x10E3/uL
  ALANINE AMINOTRANSFERASE: 49.33 u/L
  ALBUMIN: 4.13 G/DL
  ALKALINE PHOSPHATASE: 284.33 u/L
  ASPARTATE AMINOTRANSFERASE: 91.33 u/L
  BLOOD UREA NITROGEN: 20 mg/dL
  CARBON DIOXIDE: 27 mmol/L
  CHLORIDE: 102.67 MEQ/L
  CHOLESTEROL: 62.33 mg/dL
  CREATINE PHOSPHOKINASE: 540.67 u/L
  CREATININE: 0.21 mg/dL
  GLUCOSE: 156.67 mg/dL
  LACTATE DEHYDROGENASE: 601 u/L
  LIPASE: 8.67 u/L
  PHOSPHORUS: 13.17 mg/dL
  POTASSIUM: 5.78 MEQ/L
  SODIUM: 147.03 MEQ/L
  TOTAL BILIRUBIN: 0.13 mg/dL
  TOTAL PROTEIN: 5.8 G/DL
  URIC ACID: 1.77 mg/dL

From ChEMBL document CHEMBL3885881, “DrugMatrix”
